Measurements: US12404279B2, “Deubiquitinase inhibitors and methods of use thereof” (Molecure S.A., priority 2021, dated 2025)
Counter-ions that a name gives are not always drawn. Like-named read-outs stand apart in the source and are kept apart here.

Biological target: full-length USP7 (Homo sapiens (Human), UniProt Q93009)
Assay: Enzymatic assay to determine IC50 of USP7 inhibitors (Ubiquitin-Rhodamine 110 cleavage)
Type: biochemical
Details: for IC50: 0.5 nM USP7, 0.5 μM Ubiquitin-Rhodamine 110, 45 min at 37° C.; for inhibition at 1 µM: read-out: percent value of inhibition of USP7 activity
Protocol: For the inhibitors disclosed herein, their potency was measured using the following method.
A 45 μl reaction volume containing full-length USP7 (0.5 nM) in 50 mM HEPES pH 7.5, 150 mM NaCl, 1 mM DTT, 1 mg/ml BSA and 0.05% Tween20 was assembled in wells of 96 well half area black flat bottom plates. Test compounds were first dissolved to 25 mM stocks in DMSO and subsequently introduced to enzyme 15 min after USP7 incubation with DTT at room temperature. The enzymatic reaction was started by adding 0.5 μM Ubiquitin-Rhodamine 110 (final concentration) and allowed to proceed for 45 min at 37° C., 250 RPM shaking before Rhodamine fluorescence (485 nm excitation/520 nm emission) was measured using Tecan Spark M10 plate reader.

[1] = at 1 μM of the test compound, given where IC50 not determined yet

full-length USP7, sequence (Q93009 whole entry): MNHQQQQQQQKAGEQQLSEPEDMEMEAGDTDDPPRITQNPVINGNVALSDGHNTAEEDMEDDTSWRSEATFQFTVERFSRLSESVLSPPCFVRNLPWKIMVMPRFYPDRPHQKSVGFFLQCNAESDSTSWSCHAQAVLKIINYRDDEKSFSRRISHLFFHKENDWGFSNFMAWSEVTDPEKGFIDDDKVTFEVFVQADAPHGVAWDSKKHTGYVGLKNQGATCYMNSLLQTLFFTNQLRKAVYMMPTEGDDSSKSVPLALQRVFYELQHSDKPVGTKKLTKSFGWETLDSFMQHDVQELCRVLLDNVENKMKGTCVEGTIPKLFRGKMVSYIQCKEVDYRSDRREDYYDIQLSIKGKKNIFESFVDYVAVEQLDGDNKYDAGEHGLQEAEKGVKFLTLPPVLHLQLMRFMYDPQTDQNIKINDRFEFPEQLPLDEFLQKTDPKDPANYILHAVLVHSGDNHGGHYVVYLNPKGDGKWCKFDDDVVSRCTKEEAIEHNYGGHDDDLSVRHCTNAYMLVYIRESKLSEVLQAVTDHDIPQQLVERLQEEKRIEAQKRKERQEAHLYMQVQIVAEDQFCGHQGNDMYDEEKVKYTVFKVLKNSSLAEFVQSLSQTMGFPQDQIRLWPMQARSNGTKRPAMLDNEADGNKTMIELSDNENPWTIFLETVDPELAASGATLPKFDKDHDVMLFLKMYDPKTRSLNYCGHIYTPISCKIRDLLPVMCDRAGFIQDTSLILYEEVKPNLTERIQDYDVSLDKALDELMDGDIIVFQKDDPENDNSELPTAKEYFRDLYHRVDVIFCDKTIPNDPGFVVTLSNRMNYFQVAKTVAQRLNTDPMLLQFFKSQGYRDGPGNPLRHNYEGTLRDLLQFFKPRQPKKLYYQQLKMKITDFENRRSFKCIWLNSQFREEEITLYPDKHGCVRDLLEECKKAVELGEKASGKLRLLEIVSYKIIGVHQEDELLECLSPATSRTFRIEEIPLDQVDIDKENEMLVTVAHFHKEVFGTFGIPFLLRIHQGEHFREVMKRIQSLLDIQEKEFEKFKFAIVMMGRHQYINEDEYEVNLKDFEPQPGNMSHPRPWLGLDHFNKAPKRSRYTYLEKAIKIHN

SMILES | IC50 [nM] | inhibition at 1 µM [1] [%] | also measured
Cc1nc(C#N)cc(-c2ccnc3cc(CN4C(=O)C5C(C4=O)C5(C)C)sc23)c1C(=O)N1CC[C@H](N)C1 (stereo partly drawn) [Example 15, 5-((S)-3-aminopyrrolidine-1-carbonyl)-4-(2-((6,6-dimethyl-2,4-dioxo-3-azabicyclo[3.1.0]hexan-3-yl)methyl)thieno[3,2-b]pyridin-7-yl)-6-methylpicolinonitrile 2,2,2-trifluoroacetate] | < 500 |  | 
Cc1nc(C#N)cc(-c2ccnc3cc(CN4C(=O)C5C(C4=O)C5(C)C)sc23)c1C(=O)NC1CNC1 (stereo not drawn) [Example 16, N-(azetidin-3-yl)-6-cyano-4-(2-((6,6-dimethyl-2,4-dioxo-3-azabicyclo[3.1.0]hexan-3-yl)methyl)thieno[3,2-b]pyridin-7-yl)-2-methylnicotinamide hydrochloride] |  | 20 to 49 | 
Cc1nc(C#N)cc(-c2ccnc3cc(CN4C(=O)C5C(C4=O)C5(C)C)sc23)c1C(=O)N1CCNCC1 (stereo not drawn) [Example 17, 4-(2-((6,6-dimethyl-2,4-dioxo-3-azabicyclo[3.1.0]hexan-3-yl)methyl)thieno[3,2-b]pyridin-7-yl)-6-methyl-5-(piperazine-1-carbonyl)picolinonitrile hydrochloride] | 500 to 1000 |  | 
Cc1cc(C(F)(F)F)nc(-c2ccnc3cc(CN4C(=O)C5C(C4=O)C5(C)C)sc23)c1NC1CCNC1 (stereo not drawn) [Example 18, 6,6-dimethyl-3-((7-(4-methyl-3-(pyrrolidin-3-ylamino)-6-(trifluoromethyl)pyridin-2-yl)thieno[3,2-b]pyridin-2-yl)methyl)-3-azabicyclo[3.1.0]hexane-2,4-dione 2,2,2-trifluoroacetate] | < 500 |  | 
Cc1nc(C#N)cc(-c2ccnc3cc(CN4C(=O)C5C(C4=O)C5(C)C)sc23)c1C(=O)N1CC(F)(F)C1 (stereo not drawn) [Example 19, 5-(3,3-difluoroazetidine-1-carbonyl)-4-(2-((6,6-dimethyl-2,4-dioxo-3-azabicyclo[3.1.0]hexan-3-yl)methyl)thieno[3,2-b]pyridin-7-yl)-6-methylpicolinonitrile 2,2,2-trifluoroacetate] | 500 to 1000 |  | 
Cc1cc(C#N)nc(-c2ccnc3cc(CN4C(=O)C5C(C4=O)C5(C)C)sc23)c1NC1CCNC1 (stereo not drawn) [Example 20, 6-(2-((6,6-dimethyl-2,4-dioxo-3-azabicyclo[3.1.0]hexan-3-yl)methyl)thieno[3,2-b]pyridin-7-yl)-4-methyl-5-(pyrrolidin-3-ylamino)picolinonitrile dihydrochloride] | < 500 |  | 
Cc1nc(C(F)(F)F)cc(-c2ccnc3cc(CN4C(=O)C5C(C4=O)C5(C)C)sc23)c1O[C@H]1CCNC1 (stereo partly drawn) [Example 22] | 500 to 1000 |  | 
Cc1nc(C(F)(F)F)cc(-c2ccnc3cc(CN4C(=O)C5C(C4=O)C5(C)C)sc23)c1O[C@H]1CCCNC1 (stereo partly drawn) [Example 23, 6,6-dimethyl-3-((7-(2-methyl-3-(((S)-piperidin-3-yl)oxy)-6-(trifluoromethyl)pyridin-4-yl)thieno[3,2-b]pyridin-2-yl)methyl)-3-azabicyclo[3.1.0]hexane-2,4-dione 2,2,2-trifluoroacetate] | < 500 |  | 
Cc1cc(C#N)nc(-c2ccnc3cc(CN4C(=O)C5C(C4=O)C5(C)C)sc23)c1NC1CNC1 (stereo not drawn) [Example 24, 5-(azetidin-3-ylamino)-6-(2-((6,6-dimethyl-2,4-dioxo-3-azabicyclo[3.1.0]hexan-3-yl)methyl)thieno[3,2-b]pyridin-7-yl)-4-methylpicolinonitrile 2,2,2-trifluoroacetate] | < 500 |  | 
Cc1nc(C#N)cc(-c2ccnc3cc(CN4C(=O)C5C(C4=O)C5(C)C)sc23)c1NC1CCNC1 (stereo not drawn) [Example 26, 4-(2-((6,6-dimethyl-2,4-dioxo-3-azabicyclo[3.1.0]hexan-3-yl)methyl)thieno[3,2-b]pyridin-7-yl)-6-methyl-5-(pyrrolidin-3-ylamino)picolinonitrile 2,2,2-trifluoroacetate] | < 500 |  | 
Cc1nc(C#N)cc(-c2ccnc3cc(CN4C(=O)C5C(C4=O)C5(C)C)sc23)c1NC(=O)C1CCN1 (stereo not drawn) [Example 27, N-(6-cyano-4-(2-((6,6-dimethyl-2,4-dioxo-3-azabicyclo[3.1.0]hexan-3-yl)methyl)thieno[3,2-b]pyridin-7-yl)-2-methylpyridin-3-yl)azetidine-2-carboxamide 2,2,2-trifluoroacetate] |  |  | inhibition at 1 µM: < 20%
Cc1nc(Cl)cc(-c2ccnc3cc(CN4C(=O)C5C(C4=O)C5(C)C)sc23)c1NC(=O)C1CNC1 (stereo not drawn) [Example 29, N-(6-chloro-4-(2-((6,6-dimethyl-2,4-dioxo-3-azabicyclo[3.1.0]hexan-3-yl)methyl)thieno[3,2-b]pyridin-7-yl)-2-methylpyridin-3-yl)azetidine-3-carboxamide 2,2,2-trifluoroacetate] | < 500 |  | 
Cc1nc(C#N)cc(-c2ccnc3cc(CN4C(=O)C5C(C4=O)C5(C)C)sc23)c1NC(=O)C1CNC1 (stereo not drawn) [Example 30, N-(6-cyano-4-(2-((6,6-dimethyl-2,4-dioxo-3-azabicyclo[3.1.0]hexan-3-yl)methyl)thieno[3,2-b]pyridin-7-yl)-2-methylpyridin-3-yl)azetidine-3-carboxamide 2,2,2-trifluoroacetate] | < 500 |  | 
Cc1cc(Cl)cc(-c2ccnc3sccc23)c1O[C@H]1CCCNC1 [Example 31, (S)-4-(5-chloro-3-methyl-2-(piperidin-3-yloxy)phenyl)thieno[2,3-b]pyridine 2,2,2-trifluoroacetate] | 1000 to 10000 |  | 
Cc1nc(C(F)(F)F)cc(-c2ccnc3cc(CN4C(=O)C5C(C4=O)C5(C)C)sc23)c1NC(=O)CN1CC(F)(F)C1 (stereo not drawn) [Example 32, 2-(3,3-difluoroazetidin-1-yl)-N-(4-(2-((6,6-dimethyl-2,4-dioxo-3-azabicyclo[3.1.0]hexan-3-yl)methyl)thieno[3,2-b]pyridin-7-yl)-2-methyl-6-(trifluoromethyl)pyridin-3-yl)acetamide 2,2,2-trifluoroacetate] |  |  | inhibition at 1 µM: < 20%
CCc1nc(C(F)(F)F)cc(-c2ccnc3cc(CN4C(=O)C5C(C4=O)C5(C)C)sc23)c1NC(=O)C1CCNCC1 (stereo not drawn) [Example 33, N-(4-(2-((6,6-dimethyl-2,4-dioxo-3-azabicyclo[3.1.0]hexan-3-yl)methyl)thieno[3,2-b]pyridin-7-yl)-2-ethyl-6-(trifluoromethyl)pyridin-3-yl)piperidine-4-carboxamide 2,2,2-trifluoroacetate] |  |  | inhibition at 1 µM: < 20%
Cc1cc(Cl)cc(-c2ccnc3cc(CN4C(=O)C5C(C4=O)C5(C)C)sc23)c1NC(=O)[C@H]1CCNC1 (stereo partly drawn) [Example 34, (3S)—N-(4-chloro-2-(2-((6,6-dimethyl-2,4-dioxo-3-azabicyclo[3.1.0]hexan-3-yl)methyl)thieno[3,2-b]pyridin-7-yl)-6-methylphenyl)pyrrolidine-3-carboxamide 2,2,2-trifluoroacetate] | < 500 |  | 
Cc1cc(C(F)(F)F)nc(-c2ccnc3cc(CN4C(=O)C5C(C4=O)C5(C)C)sc23)c1Cn1cncn1 (stereo not drawn) [Example 36, 3-((7-(3-((1H-1,2,4-triazol-1-yl)methyl)-4-methyl-6-(trifluoromethyl)pyridin-2-yl)thieno[3,2-b]pyridin-2-yl)methyl)-6,6-dimethyl-3-azabicyclo[3.1.0]hexane-2,4-dione hydrochloride] |  | < 20 | 
Cc1cc(C(F)(F)F)nc(-c2ccnc3cc(CN4C(=O)C5C(C4=O)C5(C)C)sc23)c1CC1NC(=O)CNC1=O (stereo not drawn) [Example 37, 3-((7-(3-((3,6-dioxopiperazin-2-yl)methyl)-4-methyl-6-(trifluoromethyl)pyridin-2-yl)thieno[3,2-b]pyridin-2-yl)methyl)-6,6-dimethyl-3-azabicyclo[3.1.0]hexane-2,4-dione hydrochloride] |  | < 20 | 
Cc1cc(C(F)(F)F)nc(-c2ccnc3cc(CN4C(=O)C5C(C4=O)C5(C)C)sc23)c1CN1CCOCC1=O (stereo not drawn) [Example 38, 6,6-dimethyl-3-((7-(4-methyl-3-((3-oxomorpholino)methyl)-6-(trifluoromethyl)pyridin-2-yl)thieno[3,2-b]pyridin-2-yl)methyl)-3-azabicyclo[3.1.0]hexane-2,4-dione hydrochloride] |  | < 20 | 
Cc1cc(C(F)(F)F)nc(-c2ccnc3cc(CN4C(=O)C5C(C4=O)C5(C)C)sc23)c1CN1CCCC1=O (stereo not drawn) [Example 39, 6,6-dimethyl-3-((7-(4-methyl-3-((2-oxopyrrolidin-1-yl)methyl)-6-(trifluoromethyl)pyridin-2-yl)thieno[3,2-b]pyridin-2-yl)methyl)-3-azabicyclo[3.1.0]hexane-2,4-dione dihydrochloride] |  | 20 to 49 | 
Cc1cc(C(F)(F)F)nc(-c2ccnc3cc(CN4C(=O)C5C(C4=O)C5(C)C)sc23)c1CN1CCNCC1=O (stereo not drawn) [Example 40, 6,6-dimethyl-3-((7-(4-methyl-3-((2-oxopiperazin-1-yl)methyl)-6-(trifluoromethyl)pyridin-2-yl)thieno[3,2-b]pyridin-2-yl)methyl)-3-azabicyclo[3.1.0]hexane-2,4-dione dihydrochloride] |  | 20 to 49 | 
Cc1cc(C(F)(F)F)nc(-c2ccnc3cc(CN4C(=O)C5C(C4=O)C5(C)C)sc23)c1CN1CCN(C)CC1=O (stereo not drawn) [Example 41, 6,6-dimethyl-3-((7-(4-methyl-3-((4-methyl-2-oxopiperazin-1-yl)methyl)-6-(trifluoromethyl)pyridin-2-yl)thieno[3,2-b]pyridin-2-yl)methyl)-3-azabicyclo[3.1.0]hexane-2,4-dione dihydrochloride] |  | < 20 | 
Cc1cc(C#N)nc(-c2ccnc3cc(CN4C(=O)C5C(C4=O)C5(C)C)sc23)c1C(=O)N(C)CCN(C)C (stereo not drawn) [Example 42, 6-cyano-2-(2-((6,6-dimethyl-2,4-dioxo-3-azabicyclo[3.1.0]hexan-3-yl)methyl)thieno[3,2-b]pyridin-7-yl)-N-(2-(dimethylamino)ethyl)-N,4-dimethylnicotinamide] |  | < 20 | 
